Measured values from patent US12576167B2, “Gadolinium-based compound, method for producing same, and MRI contrast agent containing same” (KYUNGPOOK NATIONAL UNIVERSITY INDUSTRY-ACADEMIC COOPERATION …, priority 2020, dated 2026).

Key:
[1] = Measurement of relaxivity (r1, r2), phantom in 3 T MRI; format: physicochemical; settings: 0.0625-1 mM in tertiary distilled water, linear regression, in mM-1 s-1 (unit assumed)
Method: Relaxivity (r1, r2) of each of Gd-DO3A-Ga synthesized using the method according to Present Example 2, and Gadovist® and Dotarem® as commercial cyclic contrast agents as comparative groups.
Specifically, a phantom was prepared by diluting the gadolinium complex to 5 concentrations (0.0625, 0.125, 0.25, 0.5, 1 mM) using tertiary distilled water, and then T1 and T2 relaxation times thereof were measured in 3 T MRI. Thus, R (relaxivity=1/T) thereof at each of the concentrations was calculated and a result of the relaxivity of the gadolinium complex was obtained via linear regression analysis. (See following Table 1 and FIG. 5)

[2] = target: amyloid beta polymer (oligomeric Aβ) (Homo sapiens, UniProt P05067); experiment: Phantom test for targeting ability toward amyloid beta polymer, 9.4 T MR; format: binding; settings: amyloid beta polymer incubated with contrast agent at 37° C. for 24 hours, washed pellet, FIG. 7
Method: HFIP (221.5 μl) was added to amyloid beta (1 mg, 1 mM) to produce a mixture which in turn was shaken for 1 hour at room temperature using a shaker to remove preaggregation. Next, the amyloid beta from which the pre-aggregation was removed was dried. Then, DMSO (221.5 μl) was added thereto to adjust a concentration thereof to 1 mM. Then, a suspension thereof was produced using a mixer and a sonicator, and PBS (1×, pH 7.4, 878.5 μl) was added to the suspension to adjust a concentration of the suspension to 0.2 mM. Thereafter, the suspension was subjected to incubation for 4 days at 37° C. using a shaker. Then, amyloid beta polymer (oligomeric Aβ) that has been polymerized was dispensed by 200 μl. Then, a further mixed solution in which the compound Gd-DO3A-Ga was dissolved in PBS at a concentration of 2 mM was added thereto at 20 μl amount. A further mixed solution in which the commercial contrast agent (Gadovist®) was dissolved in PBS at a concentration of 2 mM was added thereto at 20 μl amount. Then, each of two resulting mixtures was incubated at 37° C. for 24 hours using a shaker. After completion of the incubation, a supernatant was removed therefrom via centrifugation, and then the amyloid beta polymer was washed with PBS, and then 200 μl of PBS:DMSO=9:1 solution was added to a pellet thereof to prepare MRI phantom samples. […]

Chain of amyloid beta polymer (oligomeric Aβ) (P05067 672-713 limits assumed): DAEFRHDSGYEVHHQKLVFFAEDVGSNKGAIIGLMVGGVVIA

Structure (SMILES) | relaxivity r1 [1] | relaxivity r2 [1] | MR signal intensity (contrast enhancement effect) of phantom versus control incubated only with amyloid beta polymer [2]
CNC[C@H](O)[C@@H](O)[C@H](O)[C@H](O)CO.O=C([O-])CN1CCN(CC(=O)[O-])CCN(CC(=O)O)CCN(CC(=O)[O-])CC1.[Gd+3] [Dotarem ®] | 3.40 ± 0.07 | 3.88 ± 0.16 | 
O=C([O-])CN1CCN(CC(=O)[O-])CCN([C@H](CO)[C@H](O)CO)CCN(CC(=O)[O-])CC1.[Gd+3] (racemic) [Gadovist ®] | 3.85 ± 0.09 | 4.87 ± 0.11 | no significant difference
